US10682372B2, “Intracellular ATP enhancer” (StaGen Co., Ltd., priority 2015, dated 2020)

How the values were obtained:
[1] = system: model mouse of amyotrophic lateral sclerosis; conditions: model mouse of ALS; cited from earlier work
[2] = high-dose administration; cited from earlier work
[3] = Second administration test: serum uric acid value, single and combined administration; format: in vivo, Human
Procedure: (1) The subject of administration was the same as Test Example 1.
After a sufficient period had elapsed from completion of Test Example 1, febuxostat was administered again at 40 mg/day to the patient, and the serum uric acid value was measured three days later. Subsequently, febuxostat was discontinued and, after a while, administration of 2 g/day of inosine was started (administered at 1 g each after breakfast and dinner) and was followed by combined use of 2 g/day of inosine and 40 mg of febuxostat (administered at 20 mg each after breakfast and dinner). The serum uric acid value was measured at time points shown on the horizontal axis of FIG. 4.

[4] = Clinical test Phase II: serum uric acid value; format: in vivo, Human
Procedure: (§1) The following administration test was conducted for 16 Japanese healthy adult males, one subject in Phase I and 15 subjects which divided into Groups of A to E for each groups 3 subjects in phase II.
(§2) After the end of Phase I, administration was performed to three subjects of each of the groups as follows:
(§3) Group A: febuxostat 20 mg twice a day for 14 days;
(§4) Group B: inosine 500 mg twice a day for 14 days;
(§5) Group C: febuxostat 20 mg+inosine 500 mg twice a day for 14 days;
(§6) Group D: febuxostat 20 mg+inosine 1000 mg twice a day for 14 days; and
(§7) Group E: febuxostat 30 mg twice a day for 14 days.

[5] = Clinical test Phase II: urinary uric acid concentration/creatinine concentration; format: in vivo, Human; conditions: Week 0 to Week 2
Procedure: Since the urinary uric acid concentration varies with urine volume, a urinary uric acid amount was evaluated by using a urinary uric acid/creatinine value acquired by dividing by urinary creatinine concentration. The measurement method of the uric acid value was the same as Test Example 1.
as §1, §2, §3, §4, §5, §6, §7

[6] = Clinical test Phase II: blood purine concentration; format: in vivo, Human; conditions: for ATP concentration in blood, change: Week 0 to Week 2; for inosine concentration in blood, change: any groups (Groups A to E)
Procedure: Various purines in peripheral blood were measured according to Reference (1). Briefly, peripheral blood was collected with EDTA, mixed with 500 μL+500 μL ice cold 8% PCA, immediately vortexed for five seconds, and centrifuged at 12,000×g for 10 minutes at 4° C., and the supernatant was stored at −80° C. The sample was dissolve in a gathered state, and 40 μL of 2M K2CO3 in 6 M KOH was added to 650 μL of the solution to precipitate PCA and neutralize the solution at the same time. After this solution was centrifuged at 12,000×g for 10 minutes at 4° C., 160 μL of a mobile phase was added to 40 μL of supernatant and apply to HPLC. The conditions of HPLC were also set according to Reference (1) below. The amounts of purines are expressed in molar quantity contained in 1 L of whole blood.
as §1, §2, §3, §4, §5, §6, §7

[7] = Clinical test Phase II: urinary purine concentration; format: in vivo, Human
[8] = in vivo; cited from earlier work
[9] = in vivo; cited from earlier work; remark: listed apart in the source
erythrocytes = erythrocytes kept at low temperature for 20 to 30 days, one hour after addition of inosine; cited from earlier work
[10] = First administration test: serum uric acid value (uricase-peroxidase method); format: in vivo, Human
Procedure: For a clinical chemistry automatic analyzer, a dry clinical chemistry analysis measuring unit manufactured by ARKRAY, Inc. was used, and the serum uric acid value was measured by using the uricase-peroxidase method. A first clinical test was conducted by first administering febuxostat at 40 mg/day (single administration of febuxostat), after a while, additionally administering inosine (combined administration of febuxostat and inosine), and gradually increasing the dosage of inosine from 0.5 to 3 g/day. Meanwhile, blood was collected at the timing shown on the horizontal axis of FIG. 2 to measure the serum uric acid value.

[11] = Week 0 to Week 2, single administration of inosine
[12] = Group A febuxostat 40 mg/day alone
[13] = febuxostat 60 mg/day single administration
[14] = Week 0 to Week 2, single administration of febuxostat

For `Oc1ncnc2[nH]ncc12` [allopurinol], the “disease progression of amyotrophic lateral sclerosis” value [1] is listed as “did not inhibit the disease progression” and the “symptoms of chronic stable angina” value [2] is listed as “suppressed”.

In the case of `OC[C@H]1O[C@@H](n2cnc3c(O)ncnc32)[C@H](O)[C@@H]1O` [inosine], the “serum uric acid value” ([3]; inosine 2 g/day (1 g after breakfast and dinner), six days later, 8.3 mg/dL before) is reported as 13.4 mg/dL, the “rise of serum uric acid value” ([3]; inosine 2 g/day alone) is reported as 5.1 mg/dL and the “rise of serum uric acid value per 1 g/day administration of inosine” value ([3]; inosine alone) is reported as 2.55 mg/dL. The “serum uric acid value, highest observed” value ([4]; Group B: inosine 500 mg twice a day for 14 days) was “up to 8.1 mg/dL”, the “rise of serum uric acid value on average” value ([4]; Group B: inosine 1 g per day, without febuxostat) was 2.57 mg/dL and the “urinary uric acid/creatinine, change” value ([5]; Group B inosine alone) was “significantly increased”. For the same compound, the “Hx (hypoxanthine) concentration in blood, change” value (“Hx … in blood, change” below) ([6]; Group B inosine 1 g/day alone) was “neither Hx nor X changed”, the “X (xanthine) concentration in blood, change” value ([6]; Group B inosine 1 g/day alone) was “neither Hx nor X changed” and the “ATP concentration in blood, change” value ([6]; Group B inosine 1 g/day) was “not changed”. The “inosine concentration in blood, change” value [6] was “no rise”, the “maximum concentration of urinary X” value ([7]; Group B: inosine 500 mg twice a day) was 61.9 µM and the “urinary Hx, change” value [7, 11] was “no rise”. For the same compound, the “urinary X, change” value [7, 11] was “no rise”, the “symptoms of Parkinson's disease” value [8] was “alleviates symptoms” and the “symptoms of multiple sclerosis” value [9] was “alleviates symptoms”. For the same compound, the ATP in erythrocytes (erythrocytes) was “ATP increased”.

In the case of `Cc1nc(-c2ccc(OCC(C)C)c(C#N)c2)sc1C(=O)O` [febuxostat], the “serum uric acid value” ([10]; febuxostat 40 mg/day single administration, 2014.07.12, 8.4 mg/dL before (2014.07.05)) is reported as 4.7 mg/dL, the “serum uric acid value” ([10]; febuxostat 40 mg/day, 0 g inosine, 2014.08.23) is reported as 4.9 mg/dL and the “reduction of serum uric acid value” ([10]; febuxostat 40 mg/day, previous (first) test) is reported as 3.7 mg/dL. The “suppression by febuxostat of the serum uric acid increasing action of inosine” value ([3]; febuxostat 40 mg/day, remaining share of the increase) was 22.4%, the “reduction of serum uric acid value” ([3]; three days from febuxostat 40 mg/day) was 3.4 mg/dL and the “serum uric acid value” ([3]; three days from febuxostat 40 mg/day (20150515), 8.2 mg/dL before (20150501)) was 4.8 mg/dL. For the same compound, the “reduction of serum uric acid value” ([4]; Group A: febuxostat 20 mg twice a day for 14 days) was 2.53 mg/dL, the “reduction of serum uric acid value” ([4]; Group E: febuxostat 30 mg twice a day for 14 days) was 3.93 mg/dL and the “serum uric acid value, lowest observed” value ([4]; Group E: febuxostat 60 mg/day) was “less than 2 mg/dL”. For the same compound, the “serum uric acid value, lower limit observed” value ([4]; any of the administration examples of 40 mg/day of febuxostat) was ≥ 2 mg/dL, the “urinary uric acid/creatinine, change” value ([5]; febuxostat alone (Groups A and E)) was “reduced” and the “Hx … in blood, change” value [6, 12] was “unchanged”. For the same compound, the “X (xanthine) concentration in blood, change” value [6, 12] was “significantly increased”, the “ATP concentration in blood, change” value ([6]; Group A febuxostat 40 mg/day) was “not changed” and the “ATP concentration in blood, change” value ([6]; Group E febuxostat 60 mg/day) was “No certain tendency was observed”. The “inosine concentration in blood, change” value [6] was “no rise”, the “Hx … in blood, change” value [6, 13] was “slight rise” and the “X (xanthine) concentration in blood, change” value [6, 13] was “rise”. For the same compound, the “maximum concentration of urinary X” value ([7]; Group A: febuxostat 20 mg twice a day) was 556.0 µM, the “maximum concentration of urinary X” value ([7]; Group E: febuxostat 30 mg twice a day) was 867.7 µM and the “urinary Hx, change” value [7, 14] was “moderate rise”. The “urinary X concentration, change” value [7, 14] was “significantly increased” and the “disease progression of amyotrophic lateral sclerosis” value [1] was “inhibits disease progression”.
